Experimental findings from patent US10357486B2, “Treatment of cognitive impairment with PDE4 inhibitor” (Universiteit Maastricht, priority 2013, dated 2019) are described below.

Holding throughout (type): in vivo, human
The subject of test [1] is healthy adults (18 to 35 years). In words: Spatial Memory Task, Stroop task and Continuous Performance task in healthy adults. As to conditions: 100 mcg, 300 mcg, 1000 mcg single administration. How it is done: In addition to the VLT (immediate recall and delayed recall), the subjects were also tested in the Spatial Memory Task, the Stroop task and the Continuous Performance task (a description of these additional cognitive battery tests can be found in Example 3).
Spatial memory task (SMT) The spatial memory task assesses spatial memory and is based on the object relocation task by Postma and colleagues (Kessels, Postma et al, Behav Res Methods Instrum Comput. 1999, Vol 31(3) pp 423-428). It consists of one immediate and two delayed conditions. In the immediate condition, a set of 10 pictures will be presented one by one on different locations within a white square on a computer screen. All pictures are everyday, easy-to-name objects, presented in gray scale (±3.5×5 cm). Each picture will be presented for 2000 msec with an interstimulus interval of 1000 msec. […]
Twenty-four hours after the immediate condition, subjects will return to the lab and perform the task again. […] As with the other tests, the EEG will be recorded during this task and this will later be analysed. No EEG will be recorded during the 24h-measurement. […]
Stroop task The Stroop task is well known for its ability to induce interference, and assesses response inhibition and focused attention. […] However, because of the urge to read the printed words (even if one is asked to ignore them) interference occurs. […]

For test [2] the test system is unchanged. In words: Verbal Learning Task (VLT) in healthy adults, 18 to 35 years. The text has this:
The objective of this proof-of-concept study was to validate Roflumilast as cognitive enhancer using a translational behavior (i.e., cognitive testing)—EEG (i.e., brain electrical activity) approach.
Verbal Learning Task Analysis_The study utilized Verbal Learning Task (VLT) to analyze the increased number of words remembered following roflumilast administration. The VLT consisted of displaying 30 monosyllable words on a computer screen for a period of 60 seconds. Immediately after the presentation of the words on the computer screen subjects were asked to report as many words as they could recall by memory. This process (presentation and recall) was repeated further two times. In addition, 45 min and 24 h after the last presentation, subjects were again asked to report as many words as they could recall by memory. The set of three recall trials was conducted 60 minutes following administration of the roflumilast therapy.
Statistical Data Analyses Human data was analyzed using IBM SPSS Statistics version 20. General Linear Models for repeated measures were applied with the placebo condition included as contrast. Statistical outcomes for Tests of Within-Subjects Effects and
Tests of Within-Subjects Contrasts were regarded for immediate and delayed free recall scores and for the summed immediate recall score (i.e. immediate 1+immediate 2+immediate 3). The factor Treatment (4 levels; placebo, roflumilast 100 mcg, roflumilast 300 mcg and roflumilast 1000 mcg) was included as a within subjects factor. For the analysis of the EEG data, the factor Channel (5 levels; Fz, FCz, Cz, CPz, and Pz) was included as a second within subjects factor. Peak and latency values of three memory related ERP's were analysed; i.e. P300, N400 and P600. In case of significant findings (p<0.05) post-hoc t-tests were performed to reveal which of the five midline electrodes contributed to the effect.

For test [3] the test system is unchanged. In words: EEG Event Related Potentials (P600) during VLT in healthy adults. Conditions: single oral dose of 100 mcg. The text has this: Event Related Potential Analysis An electroencephalogram (EEG) cap was used to place a set of 32 EEG electrodes according to the international 10-20 system on the subjects. Event Related Potentials (ERPs) were extracted by averaging the responses within an epoch of 100 ms before and 1000 ms after stimulus onset covering P300, N400, and P600. Separate averages were made for correct and incorrect responses within a task and for different trial types. EEG measurements were done simultaneously with VLT testing. ERPs were calculated from the words that were called during immediate recall (encoding), and from the words that were recognized and from those that were not during the recognition condition at 45 minutes. The ERP components of P300, N400, and P600 were compared to examine whether the initial stimulus processing during the learning trials differs from word to word. Finally, ERPs to the old and new items during the recognition task were measured.
Tests of Within-Subjects Contrasts were regarded for immediate and delayed free recall scores and for the summed immediate recall score (i.e. immediate 1+immediate 2+immediate 3). The factor Treatment (4 levels; placebo, roflumilast 100 mcg, roflumilast 300 mcg and roflumilast 1000 mcg) was included as a within subjects factor. […] Peak and latency values of three memory related ERP's were analysed; i.e. P300, N400 and P600. […]

As for `O=C(Nc1c(Cl)cncc1Cl)c1ccc(OC(F)F)c(OCC2CC2)c1` [roflumilast, N-(3,5-dichloropyridin-4-yl)-3-cyclopropylmethoxy-4-difluoromethoxybenzamide], the “difference between placebo and drug treatment in the Spatial Memory Task, the Stroop task and the Continuous Performance task” value in test [1] is “No statistically significant differences”. Besides, the “placebo-corrected fold-improvement in VLT” value in test [2] (100 mcg single dose, healthy volunteer study, 3rd trial) was 1.12. The “number of words on the 3rd trial of VLT” value in test [2] (100 mcg single dose, young volunteers, placebo 21.25) was 23.7 words. Moreover, the “improvement in number of correct words recalled in VLT (average)” value in test [2] (single oral dose of 100 mcg, after the third trial) was 2.5 words. In addition, the “amplitude of Event-Related Potential P600 during VLT” value in test [3] is reported as “strongest increase of amplitude”; in test [3] (listed as Roflumilast) it was “increased amplitude”.
